Experiments:
plasma proteins [1] = experiment: Protein binding via Transil assay, rat plasma; assay type: in vitro ADME
Description: (§1) The distribution of a test substance between Transil® (phosphatidylcholine lipid bilayers immobilized on silica beads) and plasma is a characteristic feature of any pharmaceutical compound and is dependent on its extent of binding to plasma proteins. By comparing the distribution between Transil® and buffer with the distribution between Transil® and plasma of any species of interest, the unbound fraction in the plasma of the respective animal species can be calculated in vitro. The respective plasma and buffer concentrations were determined via a radioactivity analysis. A detailed description of the method and its validation was published by Schuhmacher et al. (2).

[2] = test system: conscious hypoxia challenged dog; experiment: Conscious hypoxia challenged dog model, duration of action (PAP reduction); assay type: in vivo
[3] = test system: anesthetized thromboxane A2 challenged PAH-minipig; experiment: Haemodynamics in the anesthetized thromboxane challenged minipig (PAH minipig), inhaled nebulized solution: lung selectivity and duration of action; assay type: in vivo, Göttingen Minipigs
Protocol: Healthy Göttingen Minipigs® Ellegaard (Ellegaard, Denmark) of both sexes and having a weight of 2-6 kg were used. The animals were sedated by i.m. administration of about 25 mg/kg ketamine and about 10 mg/kg azaperone. Anaesthesia was initiated by i.v. administration of about 2 mg/kg ketamine and about 0.3 mg/kg midazolam. Maintenance of anaesthesia was by i.v. administration of about 7.5-30 mg/kg/h ketamine and about 1-4 mg/kg/h midazolam (rate of infusion 1-4 ml/kg/h) and about 150 μg/kg/h pancuronium bromide (for example Pancuronium-Actavis). After intubation, the animals were ventilated by the ventilator at a constant respiratory volume (10-12 ml/kg, 35 breaths/min; Avea®, Viasys Healthcare, USA, or Engström Carestation, GE Healthcare, Freiburg, Germany) such that an end-tidal CO2 concentration of about 5% was achieved. Ventilation was performed with room air, enriched with about 40% oxygen (normoxia). For the measurement of the haemodynamic parameters such as pulmonary arterial pressure (PAP), blood pressure (BP) and heart rate (HR), catheters were inserted into the carotid artery to measure the blood pressure, and a Swan-Ganz® catheter was introduced in a flow-directed manner via the jugular vein into the pulmonary artery. The haemodynamic signals were recorded and evaluated by means of pressure transducers (Combitransducer, B. Braun, Melsungen, Germany)/amplifiers and Ponemah® as data acquisition software.
After the instruments have been placed into the animals, continuous infusion of a thromboxane A2 analog was initiated to increase the pulmonary arterial pressure. About 0.3-0.75 μg/kg/min of 9,11-didesoxy-9α,11α-epoxymethanoprostaglandine F2α (U-44069; Sigma, cat. no. D0400, or Cayman Chemical Company, cat. no. 16440), dissolved in physiological saline, were infused to achieve an increase of the mean pulmonary arterial pressure to values of over 25 mmHg. 30 minutes after the start of the infusion, a plateau was reached, and the experiment was started.
The test substances were administered as i.v. infusion or by inhalation. For the preparation of the solution for inhalation, the following procedure was adopted: For an animal having a weight of 4 kg, to prepare the stock solution (300 μg/kg), 1.2 mg of the test compound were weighed out and dissolved in a total volume of 3 ml (1% DMSO, 99% 0.2% strength citric acid solution, 1 n aqueous sodium hydroxide solution to adjust the pH to 8). The solution was then diluted to the concentration employed using 0.2% strength citric acid which had been adjusted to pH 8 beforehand with aqueous sodium hydroxide solution. In each test, 3 ml of the solution of test compound per 4 kg animal were nebulized in the inhalation arm of the respiratory circuit using the Aeroneb® Pro nebulizer system. The mean nebulization time was about 7 min from the start of the nebulization.
With respect to a prediction of the duration of action for human studies comparative example 11 was compared in the PAH minipig model after inhaled application to Ventavis® (=Iloprost, 10 μg/kg nominal dose), which we used as a clinical reference. […] Therefore, the duration of action is more than 6 times longer compared to Ventavis in this preclinical animal model.

plasma proteins [4] = experiment: Protein binding via Transil assay, dog plasma; assay type: in vitro ADME
Description: as §1

[5] = Micronization of monohydrate II and monohydrate I (spiral jet mill): solid form after micronization; assay type: physicochemical; details: example 8e: 100 mm spiral jet mill
Description: Generally no amorphization even partial nor form conversion should happen during the necessary micronization step.
The corresponding batches (examples 8a-8d) were micronized using a 50 mm spiral jet mill and pressurized nitrogen with the following parameters (see table 16b).
The corresponding batches were micronized using a 100 mm spiral jet mill and pressurized nitrogen with the following parameters (see table 16c).

[6] = test system: patients with PAH or CTEPH; experiment: Phase 1b, inhaled single doses in patients with PAH or CTEPH: pulmonary vascular resistance (PVR), mPAP by right heart catheterization; assay type: in vivo, human
Protocol: Patients with PAH or CTEPH were treated in a clinical phase 1b study with escalating orally inhaled single doses* of 240 μg (2 capsules of 120 μg), 480 μg, 1000 μg, 2000 (2 capsules of 1000 μg) or […] (4 capsules of 1000 μg) of a dry powder of example 4 (see under C-1, e.g. tables 17 and 20), inserted into a handheld inhalation device, inhaled by deep inhalative breath into the deep parts of the lung. (*single dose means the administration of one dosage form/capsule as well as administration of two or more dosage forms/capsules simultaneously or consecutively within a short time period). The included patients had no background treatment with standard of care (SoC) medication for PAH or CTEPH (such as endothelin antagonists, prostanoids, phosphodiesterase type 5 inhibitor or soluble guanylate cyclase stimulators). Patients in this study underwent invasive right heart catheterization as medically indicated routine diagnostic. Primary objective of the study was to investigate the peak percent reduction from baseline in PVR. Patients had to have a baseline pulmonary artery pressure (mPAP) of ≥25 mmHg and a PVR of ≥400 dyn·sec·cm^−5 (5 Wood Units) and were not to show vaso-responsiveness to initial iNO inhalation testing to be included in the per protocol analysis. Plasma concentrations (pharmacokinetics) of the administered drug at several time points after administration were measured and safety and tolerability was assessed.
The study is divided into two parts, Part A and Part B. In Part A escalating aforementioned single doses were administered to patients without background treatment with standard of care (SoC) medication for PAH or CTEPH (such as endothelin antagonists, prostanoids, phosphodiesterase type 5 inhibitor or soluble guanylate cyclase stimulators). In Part B, after finalization of Part A, a selected dose from Part A will be tested in further patients without background SoC treatment (group 1) and additionally in patients on monotherapy with SoC (group 2) and on dual combination therapy with SoC (group 3).
The PVR is a derived parameter from parameters directly measured during the right heart catheterization procedure. The direct parameters included in the calculation are: mean pulmonary arterial pressure [mmHg](mPAP), pulmonary capillary wedge pressure [mmHg](PCWP), and cardiac output [1/min](CO). The PVR is calculated according to the formula: PVR [dyn*sec*cm^−5]=80*(mPAP−PCWP)/CO.

O=C(O)c1ccc(CCN(CCc2ccccc2OCc2ccc(-c3ccc(C(F)(F)F)cc3)cc2Cl)[C@H]2CCCc3nc(C(=O)O)ccc32)cc1 [Comparative example 11, (5S)-5-{[2-(4-carboxyphenyl)ethyl][2-(2-{[3-chloro-4′-(trifluoromethyl)[biphenyl]-4-yl]methoxy}phenyl)ethyl]amino}-5,6,7,8-tetrahydroquinoline-2-carboxylic Acid]
fraction unbound, lower than comparative example 1 (plasma proteins [1]): 1.6 times lower | duration of effect (PAP reduction) [2]: up to 17 hrs | minimal effective nominal dose ([3]; 5% reduction in PAP, nebulized): 3 µg/kg | dose dependent efficacy (PAP) during observation interval ([3]; all doses (10, 30 and 100 μg/kg nominal dose), inhaled): 240 min | selective PAP effect, duration of maximal effect ([3]; inhaled application, whole observation interval): 240 min | duration of action ([3]; minipig model, inhaled): sufficient duration of action | time of maximal effect on PAP after inhaled application ([3]; nebulized solution): about 90 min | fraction unbound, lower than comparative example 1 (plasma proteins [4]): 10 times lower

O=C(O)c1ccc(CCN(CCc2ccccc2OCc2ccc(-c3ccc(C(F)(F)F)cc3)cc2Cl)[C@H]2CCCc3nc(C(=O)O)ccc32)cc1 [Example 4, (5S)—{[2-(4-Carboxyphenyl)ethyl][2-(2-{[3-chloro-4′-(trifluoromethyl)biphenyl-4-yl]methoxy}phenyl)-ethyl]amino}-5,6,7,8-tetrahydroquinoline-2-carboxylic Acid as Monohydrate I]
stability under micronization conditions [5]: stable | mean pulmonary arterial pressure (mPAP), mean ± SD ([6]; 1000 μg inhaled single dose, N = 4, 0 D 03 H 00 M): 34.0 ± 11.6 mmHg | enduring mean change of PVR from baseline ([6]; 2000 μg group): approximately −30% | enduring mean change of PVR from baseline ([6]; 4000 μg group): approximately −30% | effect sustained with no decrease in response until end of measurement period ([6]; PVR after single inhaled dose): ≥ 3 h | tolerability ([6]; including the highest dose of 4000 μg): good tolerability
